This passage reports pest or weed control results from US10167300B2, “Metalloenzyme inhibitor compounds as fungicides” (priority 2014, dated 2019).

Where two headings read alike, the source gives them in different places.

What all share (assay type): in vivo, Mycosphaerella graminicola on wheat plants (variety Yuma)
Experiment [1] is described as follows: Type B (low volume, EC formulation, track sprayer 200 L/ha) assay, leaf blotch of wheat, SEPTTR field isolate (FI SEPTTR). The conditions noted are these: Zymoseptoria tritici, 72 h. Summed up: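 Wheat seedlings (Yuma, first leaf emerged) sprayed with acetone/Triton X-100 solutions (Type A) or 10% EC diluted in 0.1% Trycol at 200 L/ha (Type B), inoculated before or after spraying. Inoculated plants held 3 days at 20 °C, 100% RH, then greenhouse; % disease control from severity versus untreated plants.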

Experiment [2] deals with Mycosphaerella graminicola; Anamorph: Septoria tritici; Bayer Code SEPTTR (standard laboratory isolate, SI SEPTTR). The experiment in a line: Type A (high volume) assay, leaf blotch of wheat, standard laboratory SEPTTR isolate (SI SEPTTR). The conditions noted are these: Zymoseptoria tritici. The procedure: (§1) Example A: Evaluation of Fungicidal Activity: Leaf Blotch of Wheat (Mycosphaerella graminicola; Anamorph: Septoria tritici; Bayer Code SEPTTR)
(§2) For Type A assays, technical grades of the experimental fungicides in Table 4 below were dissolved in acetone, and then mixed with nine volumes of water containing 110 ppm Triton X-100. The fungicide solutions were applied onto wheat seedlings using an automated booth sprayer. For Type B assays, emulsifiable concentrate (EC) formulations of technical grades of the experimental fungicides in Table 4 below were prepared at 10% (w/v), and then mixed with 150 volumes of 0.1% Trycol 5941. These solutions were applied onto wheat seedlings using an automated track sprayer at 200 L/ha. All sprayed plants were allowed to air dry prior to further handling.
(§3) Wheat plants (variety Yuma) were grown from seed in a greenhouse in 50% mineral soil/50% soil-less Metro mix until the first leaf was fully emerged, with 7-10 seedlings per pot. Prior to or after application of experimental fungicides, plants were inoculated either with spores of a standard laboratory SEPTTR isolate (SI SEPTTR) or with spores from a SEPTTR field isolate collected from Wellsbourne, England in 2012 (FI SEPTTR). After inoculation the plants were kept for 3 days at 20° C. in 100% relative humidity (one day in a dark dew chamber followed by two days in a lighted dew chamber). Plants were then transferred to a 20° C. greenhouse for disease development. When disease symptoms were fully expressed on untreated plants, infection levels on treated plants were assessed on a scale of 0 to 100 percent disease severity. Percent disease control was calculated using the ratio of disease severity on treated plants relative to untreated plants.

For experiment [3] the test system is unchanged. The experiment in a line: Type B (low volume, EC formulation, track sprayer 200 L/ha) assay, leaf blotch of wheat, standard laboratory SEPTTR isolate (SI SEPTTR). The conditions noted are these: Zymoseptoria tritici, 72 h. The procedure:
as §1, §2, §3

Setting [4] is: field isolate, low volume EC, 100 g/ha, 3 Day Curative, wheat (Yuma), read-out: Disease Control, FI SEPTTR Type B Assay (100 g/ha) 3 DC.
Where [5] appears, read: field isolate, low volume EC, 100 g/ha, 3 Day Protectant, wheat (Yuma), read-out: Disease Control, FI SEPTTR Type B Assay (100 g/ha) 3 DP.
[6] abbreviates: 24 h, standard laboratory isolate, high volume, 50 ppm, 1 Day Protectant, wheat (Yuma), read-out: Disease Control, SI SEPTTR Type A Assay (50 ppm) 1 DP.
Setting [7] is: 72 h, standard laboratory isolate, high volume, 50 ppm, 3 Day Curative, wheat (Yuma), read-out: Disease Control, SI SEPTTR Type A Assay (50 ppm) 3 DC.
Setting [8] is: standard laboratory isolate, low volume EC, 100 g/ha, 3 Day Curative, wheat (Yuma), read-out: Disease Control, SI SEPTTR Type B Assay (100 g/ha) 3 DC.
Setting [9] is: standard laboratory isolate, low volume EC, 100 g/ha, 3 Day Protectant, wheat (Yuma), read-out: Disease Control, SI SEPTTR Type B Assay (100 g/ha) 3 DP.

On to `OC(Cc1ccc(Cl)cc1F)(c1cncnc1)c1ccc(Oc2ccc(Cl)cc2)cn1` (stereo not shown) [Compound 41, 2-(4-chloro-2-fluorophenyl)-1-(5-(4-chlorophenoxy)-pyridin-2-yl)-1-(pyrimidin-5-yl)ethanol], for which the pest or weed control at 100 g/ha is under 40% in experiment [1] (setting [4]), 60 to 79% in experiment [1] (setting [5]), 80 to 100% in experiment [3] (setting [8]) and 80 to 100% in experiment [3] (setting [9]). Besides, the pest or weed control at 50 ppm in experiment [2] (setting [6]) and in experiment [2] (setting [7]) was 80 to 100% in each case.
Regarding `Cc1cc(-c2ccc(CC(F)(F)F)nc2)cnc1C(O)(c1cncnc1)C(C)(C)C` (stereo not shown) [Compound 131], the pest or weed control at 100 g/ha in experiment [1] (setting [4]) lay within 60 to 79%; in experiment [1] (setting [5]) it was 60 to 79%; in experiment [3] (setting [8]), 80 to 100%; in experiment [3] (setting [9]) it was 60 to 79%. Moreover, the pest or weed control at 50 ppm in experiment [2] (setting [6]) is 80 to 100%.
As to `Cc1ncc(C(O)(c2ccc(-c3ccc(OC(F)(F)F)cc3)cn2)C(C)(C)C)cn1` (stereo not shown) [Compound 83], the pest or weed control at 100 g/ha in experiment [1] (setting [4]) is 80 to 100%; in experiment [1] (setting [5]) it was 40 to 59%; in experiment [3] (setting [8]) it was under 40%; in experiment [3] (setting [9]), 40 to 59%. Moreover, the pest or weed control at 50 ppm in experiment [2] (setting [6]) was in the range of 40 to 59%.
For the compound `Cn1cc(-c2ccc(C(O)(c3cncnc3)C(C)(C)C)nc2)cn1` (stereo not shown) [Compound 122], the pest or weed control at 100 g/ha in experiment [1] (setting [4]) lay within 60 to 79%; in experiment [1] (setting [5]), 60 to 79%; in experiment [3] (setting [8]) it was 80 to 100%; in experiment [3] (setting [9]), 80 to 100%. For the same compound, in experiment [2] (setting [6]), the pest or weed control at 50 ppm fell in the range of 80 to 100%.
With `CC(C)C(O)(c1cncnc1)c1ccc(-c2ccc(OC(F)(F)F)cc2)cn1` (stereo not shown) [Compound 63], the pest or weed control at 100 g/ha in experiment [1] (setting [4]) fell in the range of 40 to 59%; in experiment [1] (setting [5]), 60 to 79%; in experiment [3] (setting [8]), 80 to 100%; in experiment [3] (setting [9]), 80 to 100%. Also, the pest or weed control at 50 ppm in experiment [2] (setting [6]) and in experiment [2] (setting [7]) was 80 to 100% in each case.
In the case of `CC(C)(C)C(O)(c1cncnc1)c1ccc(-c2ccc(OC3CC3)cc2)cn1` (stereo not shown) [Compound 102], the pest or weed control at 100 g/ha in experiment [1] (setting [4]), in experiment [1] (setting [5]), in experiment [3] (setting [8]) and in experiment [3] (setting [9]) was 80 to 100% throughout. Besides, the pest or weed control at 50 ppm in experiment [2] (setting [6]) was in the range of 80 to 100%.
In the case of `Cc1cc(OC(F)(F)F)ccc1-c1ccc(C(O)(c2cncnc2)C(C)(C)C)nc1` (stereo not shown) [Compound 117], the pest or weed control at 100 g/ha in experiment [1] (setting [4]), in experiment [1] (setting [5]), in experiment [3] (setting [8]) and in experiment [3] (setting [9]) was 80 to 100% throughout. In addition, the pest or weed control at 50 ppm in experiment [2] (setting [6]) is 80 to 100%.
In the case of `CC(C)(C)C(O)(c1cncnc1)c1ccc(-c2ccc(C3(C#N)CC3)cc2)cn1` (stereo not shown) [Compound 105], the pest or weed control at 100 g/ha in experiment [1] (setting [4]), in experiment [1] (setting [5]), in experiment [3] (setting [8]) and in experiment [3] (setting [9]) was 80 to 100% throughout. Further, the pest or weed control at 50 ppm in experiment [2] (setting [6]) lay in the range of 80 to 100%.
For the compound `CC(C)(C)C(O)(c1cncnc1)c1ccc(-c2cccc(OC(F)(F)F)c2)cn1` (stereo not shown) [Compound 103], the pest or weed control at 100 g/ha in experiment [1] (setting [4]) is under 40%; in experiment [1] (setting [5]), 80 to 100%; in experiment [3] (setting [8]), 60 to 79%; in experiment [3] (setting [9]) it was 80 to 100%. For the same compound, the pest or weed control at 50 ppm in experiment [2] (setting [6]) fell in the range of 80 to 100%.
For the compound `CC(C)(C)C(O)(c1cncnc1)c1ccc(-c2ccc([Si](C)(C)C)cc2)cn1` (stereo not shown) [Compound 121], the pest or weed control at 100 g/ha lay in the range of 80 to 100% in experiment [1] (read-out: Disease Control, FI SEPTTR Type B Assay (100 g/ha) 3 DC); 60 to 79% in experiment [1] (read-out: Disease Control, FI SEPTTR Type B Assay (100 g/ha) 3 DP); 80 to 100% in experiment [3] (read-out: Disease Control, SI SEPTTR Type B Assay (100 g/ha) 3 DC); 80 to 100% in experiment [3] (read-out: Disease Control, SI SEPTTR Type B Assay (100 g/ha) 3 DP). Besides, the pest or weed control at 50 ppm in experiment [2] (24 h, read-out: Disease Control, SI SEPTTR Type A Assay (50 ppm) 1 DP) lay within 80 to 100%.
For the compound `CC(C)(C)C(O)(c1cncnc1)c1ccc(-c2ccc(Cl)cc2)cn1` (stereo not shown) [Compound 65], the pest or weed control at 100 g/ha in experiment [1] (setting [4]) was in the range of 60 to 79%; in experiment [1] (setting [5]), 60 to 79%; in experiment [3] (setting [8]), 80 to 100%; in experiment [3] (setting [9]) it was 80 to 100%. Besides, the pest or weed control at 50 ppm in experiment [2] (setting [6]) lay in the range of 80 to 100%.
Consider `COc1ncncc1C(O)(c1ccc(-c2ccc(OC(F)(F)F)cc2)cn1)C(C)(C)C` (stereo not shown) [Compound 167], for which the pest or weed control at 100 g/ha in experiment [1] (setting [4]) was in the range of 80 to 100%; in experiment [1] (setting [5]), 80 to 100%; in experiment [3] (setting [8]), 80 to 100%; in experiment [3] (setting [9]), 60 to 79%. The pest or weed control at 50 ppm in experiment [2] (setting [6]) lay in the range of 80 to 100%.
On to `Cc1ncncc1C(O)(c1ccc(-c2ccc(OC(F)(F)F)cc2F)cn1)C(C)(C)C` (stereo not shown) [Compound 157], for which the pest or weed control at 100 g/ha in experiment [1] (setting [4]), in experiment [1] (setting [5]), in experiment [3] (setting [8]) and in experiment [3] (setting [9]) was 80 to 100% in each case. Also, in experiment [2] (setting [6]), the pest or weed control at 50 ppm was in the range of 80 to 100%.
`CC(C)(C)C(O)(c1cncnc1)c1ccc(-c2ccc(C3(C(F)(F)F)CC3)cc2)cn1` (stereo not shown) [Compound 160]: the pest or weed control at 100 g/ha in experiment [1] (setting [4]) and in experiment [1] (setting [5]) was 80 to 100% throughout. Besides, in experiment [2] (setting [6]), the pest or weed control at 50 ppm was in the range of 80 to 100%.
Take `Cc1ccncc1C(O)(c1ccc(-c2ccc(OC(F)(F)F)cc2)cn1)C(C)(C)C` (stereo not shown) [Compound 149]: the pest or weed control at 100 g/ha in experiment [1] (setting [4]) lay within 80 to 100%; in experiment [1] (setting [5]) it was 60 to 79%; in experiment [3] (setting [8]), 80 to 100%; in experiment [3] (setting [9]), 60 to 79%.
With `COC(c1cncnc1)(c1ccc(-c2ccc(OC(F)(F)F)cc2)cn1)C(C)(C)C` (stereo not shown) [Compound 277, 5-(1-methoxy-2,2-dimethyl-1-(5-(4-(trifluoromethoxy)phenyl)pyridin-2-yl)propyl)pyrimidine], the pest or weed control at 100 g/ha in experiment [1] (SEPTTR field isolate, low volume Type B assay, 100 g/ha, 3 Day Curative, wheat leaf blotch, read-out: Disease Control, FI SEPTTR Type B Assay (100 g/ha) 3 DC) fell in the range of 80 to 100%; in experiment [1] (SEPTTR field isolate, low volume Type B assay, 100 g/ha, 3 Day Protectant, wheat leaf blotch, read-out: Disease Control, FI SEPTTR Type B Assay (100 g/ha) 3 DP), 80 to 100%; in experiment [3] (SEPTTR standard laboratory isolate, low volume Type B assay, 100 g/ha, 3 Day Curative, wheat leaf blotch, read-out: Disease Control, SI SEPTTR Type B Assay (100 g/ha) 3 DC), 80 to 100%; in experiment [3] (SEPTTR standard laboratory isolate, low volume Type B assay, 100 g/ha, 3 Day Protectant, wheat leaf blotch, read-out: Disease Control, SI SEPTTR Type B Assay (100 g/ha) 3 DP), 80 to 100%.
Take `COc1ccc(-c2ccc(C(O)(c3cncnc3)C(C)(C)C)nc2)c(F)c1` (stereo not shown) [Compound 162]: the pest or weed control at 100 g/ha in experiment [1] (setting [4]) and in experiment [1] (setting [5]) was 80 to 100% each time. For the same compound, the pest or weed control at 50 ppm in experiment [2] (setting [6]) lay in the range of 80 to 100%.
For `Cc1ccc(C(O)(c2ccc(-c3ccc(OC(F)(F)F)cc3)cn2)C(C)(C)C)cn1` (stereo not shown) [Compound 148], the pest or weed control at 100 g/ha is 60 to 79% in experiment [1] (setting [4]), under 40% in experiment [1] (setting [5]), 60 to 79% in experiment [3] (setting [8]) and under 40% in experiment [3] (setting [9]).
Regarding `CC(C)(C)C(O)(c1cncnc1)c1ccc(-c2ccc(OC(F)(F)C(F)(F)F)cc2)cn1` (stereo not shown) [Compound 161], the pest or weed control at 100 g/ha in experiment [1] (setting [4]) and in experiment [1] (setting [5]) was 80 to 100% in each case. In experiment [2] (setting [6]), the pest or weed control at 50 ppm lay in the range of 80 to 100%.
As for `Cc1ncccc1C(O)(c1ccc(-c2ccc(OC(F)(F)F)cc2)cn1)C(C)(C)C` (stereo not shown) [Compound 151], the pest or weed control at 50 ppm in experiment [2] (setting [6]) is 80 to 100%. Besides, the pest or weed control at 100 g/ha in experiment [3] (setting [8]) and in experiment [3] (setting [9]) was 80 to 100% throughout.
